Source: PubChem BioAssay (NCI)
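1) Cells in 96-well plates. 2) Compound, 48 h, 5 concentrations. 3) Linear interpolation between surrounding doses. 4) Unreached endpoint = highest concentration. GI50 marks 50% less growth. At the TGI there is no net growth.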

Experiments:
Experiment in all cases: growth of human tumour cells (NCI), 48 h
HOP-62 NSCLC = tested on: HOP-62 NSCLC
ACHN renal = tested on: ACHN renal
786-0 renal = tested on: 786-0 renal
KM12 colon = tested on: KM12 colon
SW-620 colon = tested on: SW-620 colon
OVCAR-5 ovarian = tested on: OVCAR-5 ovarian
NCI-H460 lung = tested on: NCI-H460 lung
SK-OV-3 ovarian = tested on: SK-OV-3 ovarian

| SMILES | GI50 (HOP-62 NSCLC) [µM] | TGI (HOP-62 NSCLC) [µM] | GI50 (ACHN renal) [nM] | TGI (ACHN renal) [µM] | GI50 (786-0 renal) [nM] | TGI (786-0 renal) [µM] | GI50 (KM12 colon) [nM] | TGI (KM12 colon) [µM] | GI50 (SW-620 colon) [nM] | TGI (SW-620 colon) [µM] | GI50 (OVCAR-5 ovarian) [µM] | TGI (OVCAR-5 ovarian) [µM] | GI50 (NCI-H460 lung) [nM] | GI50 (SK-OV-3 ovarian) [µM] | TGI (SK-OV-3 ovarian) [µM] | TGI (NCI-H460 lung) [µM] |
| --- | --- | --- | --- | --- | --- | --- | --- | --- | --- | --- | --- | --- | --- | --- | --- | --- |
| FC(F)(F)c1cc(-c2ncn(/C=C\c3nnco3)n2)cc(C(F)(F)F)c1 | 0.282 | 28.3 | 163 | > 96.2 | 86.9 | > 32.3 | 346 | > 32.7 | 53.6 | > 43.1 | 0.267 | > 63.3 | 38.4 | 0.223 | > 67.3 | – |
| N#Cc1c2ccccc2c2nnc3ccc(C(F)(F)F)cc3n12 | > 100 | > 100 | 27300 | > 100 | > 100000 | > 100 | 61200 | > 100 | 66700 | > 100 | – | – | 28700 | 89.9 | > 100 | > 100 |
| O=C(O)CNCCc1ccccc1 | – | > 100 | – | > 100 | – | > 100 | – | > 100 | – | > 100 | – | > 100 | – | – | > 100 | > 100 |
| O=C(O)c1cn(C2CC2)c2cc(N3CCN(C(=O)Nc4nc(-c5ccc(Br)cc5)cs4)CC3)c(F)cc2c1=O | 4.34 | > 100 | 3110 | > 100 | 1750 | > 100 | 1930 | > 100 | 4130 | > 100 | – | – | 1090 | – | – | > 100 |
| CCC(C)(C)[C@H](NC(=O)[C@H]1CCCCN1C)C(=O)N(C)[C@H](C[C@@H](OC(C)=O)c1nc(C(=O)N[C@@H](Cc2ccccc2)C[C@H](C)C(=O)O)cs1)C(C)C | < 0.00167 | > 16.7 | < 1.67 | > 16.7 | < 1.67 | > 16.7 | < 1.67 | > 16.7 | < 1.67 | > 16.7 | < 0.00167 | > 16.7 | < 1.67 | < 0.00167 | > 16.7 | > 16.7 |
| O=C(Cc1ccc(Nc2ccnc(C(F)(F)F)c2)cc1)N/N=C/c1ccccc1O | 3.08 | > 48.6 | 1460 | > 51.4 | 3590 | > 62.7 | 2090 | 15.5 | 3020 | 17 | 7.62 | > 83.1 | 1370 | 3.13 | > 68.5 | 10.6 |
| Cc1cc(C(O)(c2ccc(Nc3ccccc3)cc2)c2ccc(Nc3ccc(S(=O)(=O)O)cc3)cc2)ccc1N (stereo unspecified) | 2.27 | 4.65 | 1290 | 2.7 | 1020 | 2.27 | 1490 | 3.28 | 818 | 3.27 | 1.4 | 3 | 1320 | 2.53 | 5.92 | 2.78 |
| O=[N+]([O-])/C=C/c1cc2ccc3ccccc3c2[nH]1 | – | 4.39 | – | 2.68 | – | 3.07 | – | 3.99 | – | 4.87 | – | 4.55 | – | – | 17.2 | 5.61 |
| Oc1ccc(Cc2ccc(O)c(C3CC(c4ccc(Cl)cc4)=NN3)c2)cc1C1CC(c2ccc(Cl)cc2)=NN1 (stereo unspecified) | 3.81 | > 45.2 | 3100 | > 31.8 | 3530 | > 40.2 | 3340 | > 67.8 | 3230 | 16 | 4.45 | > 35.7 | 2190 | 3.61 | > 100 | 8.87 |
| Cn1c(=O)c2[nH]c(CCCc3ccc([N+](=O)[O-])cc3)nc2n(C)c1=O | – | > 100 | – | > 100 | – | > 100 | – | > 100 | – | – | – | > 100 | – | – | > 100 | > 100 |
| NC(=O)CCc1ccccc1Oc1nccc(-c2c(-c3ccc(F)cc3)ncn2C2CCNCC2)n1 | > 25 | > 25 | > 25000 | > 25 | > 25000 | > 25 | > 25000 | > 25 | > 25000 | > 25 | > 25 | > 25 | > 25000 | > 25 | > 25 | > 25 |
| C/C(=N/NC(=S)N1CC2CCC(CC2)C1)c1cnccn1 | – | 14.9 | – | 10.1 | – | 5.65 | – | 21 | – | 12.4 | – | 24.6 | – | – | 11.9 | 0.273 |
| NCCCNc1nc2ccc(Cl)cc2c2c(=O)c3cc(F)ccc3sc12 | 6.47 | 28.5 | 1940 | 4 | 1920 | 5.88 | 1770 | 3.43 | 1740 | 3.32 | 3.38 | 14.3 | 1730 | – | – | 3.46 |
| N#Cc1c2ccccc2c2nnc3ccccc3n12 | 24.4 | 60.1 | 19300 | 61.2 | 53200 | > 100 | 48700 | > 100 | 23100 | 91.8 | – | – | 31900 | > 100 | > 100 | > 100 |
| c1ccc(-c2cn(-c3ccccc3)c(-c3ccccc3)n2)cc1 | 2.72 | 7.88 | 15400 | 28.7 | 2300 | 4.67 | 2190 | 4.67 | 1950 | 3.83 | 19.8 | 39.7 | 13800 | 19.3 | 34 | 29.7 |
| CCC(C)CC(C)C(=O)c1c(O)ccn(O)c1=O (stereo unspecified) | 1.98 | > 100 | 775 | > 100 | 3650 | > 100 | 3370 | > 100 | 607 | > 100 | 23.7 | > 100 | 447 | 6.2 | > 100 | 11.6 |
| COc1cc2c3c(n(CCCN4CCCNCC4)c(=O)c2cc1OC)-c1cc2c(cc1C3=O)OCO2 | 0.558 | 4.46 | 193 | 0.751 | 268 | 1.14 | 1210 | 5.06 | 267 | 12 | 2.69 | 9.69 | 54.5 | 4 | 15.5 | 6.47 |
| O=C(O)c1ccc(Oc2nc3ccccc3s2)cc1 | – | > 100 | – | > 100 | – | > 100 | – | > 100 | – | > 100 | – | > 100 | – | – | > 100 | > 100 |
